Laboratory results as given in patent publication US20240109903A1, “SUBSTITUTED HETEROCYCLES FOR TREATING CANCER” (Northwestern University, priority 2022, published 2024).
Read-outs that look alike come from different tables or passages of the source.

What was measured:
K-562 = test: NCI 60 five-dose screen K-562; assay type: cell-based; settings: Homo sapiens
NCI-H23 = test: NCI 60 five-dose screen NCI-H23; assay type: cell-based; settings: Homo sapiens
SK-MEL-28 = test: NCI 60 five-dose screen SK-MEL-28; assay type: cell-based; settings: Homo sapiens
IGROV1 = test: NCI 60 five-dose screen IGROV1; assay type: cell-based; settings: Homo sapiens
HOP-62 = test: NCI 60 five-dose screen HOP-62; assay type: cell-based; settings: Homo sapiens
RXF 393 = test: NCI 60 five-dose screen RXF 393; assay type: cell-based; settings: Homo sapiens
OVCAR-5 = test: NCI 60 five-dose screen OVCAR-5; assay type: cell-based; settings: Homo sapiens
MOLT-4 = test: NCI 60 five-dose screen MOLT-4; assay type: cell-based; settings: Homo sapiens
UACC-62 = test: NCI 60 five-dose screen UACC-62; assay type: cell-based; settings: Homo sapiens
TK-10 = test: NCI 60 five-dose screen TK-10; assay type: cell-based; settings: Homo sapiens
SR = test: NCI 60 five-dose screen SR; assay type: cell-based, human
HCC-2998 = test: NCI 60 five-dose screen HCC-2998; assay type: cell-based; settings: Homo sapiens
M14 = test: NCI 60 five-dose screen M14; assay type: cell-based; settings: Homo sapiens
MDA-MB-231/ATCC = test: NCI 60 five-dose screen MDA-MB-231/ATCC; assay type: cell-based; settings: Homo sapiens
SF-539 = test: NCI 60 five-dose screen SF-539; assay type: cell-based; settings: Homo sapiens
DU-145 = test: NCI 60 five-dose screen DU-145; assay type: cell-based; settings: Homo sapiens
SNB-19 = test: NCI 60 five-dose screen SNB-19; assay type: cell-based; settings: Homo sapiens
HCT-116 = test: NCI 60 five-dose screen HCT-116; assay type: cell-based; settings: Homo sapiens
KM12 = test: NCI 60 five-dose screen KM12; assay type: cell-based; settings: Homo sapiens
MALME-3M = test: NCI 60 five-dose screen MALME-3M; assay type: cell-based; settings: Homo sapiens, Malme-3M
HS 578T = test: NCI 60 five-dose screen HS 578T; assay type: cell-based; settings: Homo sapiens
UACC-257 = test: NCI 60 five-dose screen UACC-257; assay type: cell-based; settings: Homo sapiens
U251 = test: NCI 60 five-dose screen U251; assay type: cell-based; settings: Homo sapiens
[1] = tested on: MV-4-11 acute myeloid leukemia cells; test: CellTiter-Glo 2.0 cell viability, MV-4-11; assay type: cell-based; settings: Homo sapiens
Procedure, shortened: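 MV4-11 cells plated at 3,000 cells/well on pre-dispensed compounds and incubated 3 days at 37 °C, 5% CO2. Viability read as ATP-dependent luminescence with CellTiter-Glo 2.0 after 20 min at ambient temperature, followed by regression analysis.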

[2] = read-out: LC50 (the source's name) (converted)
[3] = read-out: LC50 (the source's name)

## Fc1ccc(N2CC(Cn3c(C(F)(F)F)cc4c(Cl)ncnc43)C2)c(F)c1 [NUCC-0226695]
K-562; K562
  GI50: 2.34 µM
  IC50: 3.09 µM
  IC (TGI): 7.08 µM
K-562; K562, read-out: LC50 (the source's name)
  CC50: ≥ 100 µM
NCI-H23
  GI50: 2.63 µM
  IC50: 4.9 µM
  IC (TGI): 8.32 µM
NCI-H23; [2]
  CC50: 30.9 µM
SK-MEL-28
  GI50: 2.09 µM
  IC50: 3.63 µM
  IC (TGI): 4.9 µM
SK-MEL-28; [2]
  CC50: 16.6 µM
IGROV1; IGROV-1
  GI50: 1.86 µM
  IC50: 3.24 µM
  IC (TGI): 3.55 µM
IGROV1; IGROV-1, read-out: LC50 (the source's name) (converted)
  CC50: 6.76 µM
HOP-62
  GI50: 17 µM
  IC50: 32.4 µM
  IC (TGI): 33.9 µM
HOP-62; [2]
  CC50: 66.1 µM
RXF 393
  GI50: 2.09 µM
  IC50: 5.37 µM
  IC (TGI): 5.01 µM
RXF 393; [2]
  CC50: 15.5 µM
OVCAR-5
  GI50: 17.8 µM
  IC50: 32.4 µM
  IC (TGI): 37.2 µM
OVCAR-5; [2]
  CC50: 77.6 µM
MOLT-4
  GI50: 3.09 µM
  IC50: 4.57 µM
  IC (TGI): 8.91 µM
MOLT-4; [3]
  CC50: ≥ 100 µM
UACC-62
  GI50: 3.16 µM
  IC50: 5.62 µM
  IC (TGI): 12.9 µM
UACC-62; [2]
  CC50: 36.3 µM
TK-10
  GI50: 19.1 µM
  IC50: 42.7 µM
  IC (TGI): 51.3 µM
TK-10; [2]
  CC50: ≥ 100 µM
SR
  TGI: 5.16 −log[M]
SR; Homo sapiens
  GI50: 2.14 µM
  IC50: 3.39 µM
SR; Homo sapiens, read-out: LC50 (the source's name)
  CC50: ≥ 100 µM
HCC-2998
  GI50: 1.95 µM
  IC50: 3.47 µM
  IC (TGI): 3.47 µM
HCC-2998; [2]
  CC50: 6.17 µM
M14
  GI50: 2.95 µM
  IC50: 4.37 µM
  IC (TGI): 10.7 µM
M14; [2]
  CC50: 45.7 µM
MDA-MB-231/ATCC
  GI50: 1.62 µM
  IC50: 2.95 µM
  IC (TGI): 3.09 µM
MDA-MB-231/ATCC; [2]
  CC50: 5.89 µM
SF-539
  GI50: 13.8 µM
  IC50: 24.5 µM
  IC (TGI): 28.2 µM
SF-539; [2]
  CC50: 58.9 µM
DU-145
  GI50: 12.6 µM
  IC50: 21.9 µM
  IC (TGI): 25.7 µM
DU-145; [2]
  CC50: 52.5 µM
SNB-19
  GI50: 15.1 µM
  IC50: 27.5 µM
  IC (TGI): 28.8 µM
SNB-19; [2]
  CC50: 55 µM
HCT-116
  GI50: 1.91 µM
  IC50: 3.16 µM
  IC (TGI): 3.89 µM
HCT-116; [2]
  CC50: 7.94 µM
KM12
  GI50: 16.2 µM
  IC50: 28.2 µM
  IC (TGI): 30.9 µM
KM12; [2]
  CC50: 60.3 µM
MALME-3M
  GI50: 12.6 µM
  IC50: 25.7 µM
  IC (TGI): 25.1 µM
MALME-3M; [2]
  CC50: 50.1 µM
HS 578T
  GI50: 7.08 µM
  IC50: 77.6 µM
  IC (TGI): 41.7 µM
HS 578T; [3]
  CC50: ≥ 100 µM
UACC-257
  GI50: 3.09 µM
  IC50: 6.46 µM
  IC (TGI): 12 µM
UACC-257; [2]
  CC50: 42.7 µM
U251; U-251
  GI50: 1.91 µM
  IC50: 3.24 µM
  IC (TGI): 3.8 µM
U251; U-251, read-out: LC50 (the source's name) (converted)
  CC50: 7.76 µM
[1]; MV4-11, 72 h, MV-4-11 cells, 3 days, CellTiter-Glo 2.0, read-out: IC50 (uM) [Cell Type: MV-4-11]
  IC50: 0.739 µM
[1]; MV4-11, bound stated in text, read-out: IC50 against MV-4-11 acute myeloid leukemia cells
  IC50: < 2 µM
